Measurements from patent US7449492B2, “Therapeutic agents—I” (priority 2000, dated 2008).

Experiments:
[1] = system: peripheral blood mononuclear cells (PBMCs); experiment: Phagocytosis with fluorescent beads; type: cell-based; conditions: whole heparinized blood, 30 min at 37° C.
Method: Phagocytosis by peripheral blood mononuclear cells (PBMCs) was assayed (Steinkamp et al., 1982) using 1 μm Fluoresbrite™ yellow-green fluorescent latex spheres (Polysciences, Inc., Warrington, Pa.). A sample of whole, heparinized blood was treated with drug and 5×10E7 fluorescent latex beads in 10 μL of PBS added per mL of suspension. Cells were incubated and maintained in suspension for 30 min by means of a shaker platform at 37° C. The stimulated and non-stimulated samples were then lysed to isolate PBMCs. The PBMCs were run on the flow cytometer measuring FITC (excitation at 488 nm, emission at 525±20 nm), gated for fluorescence (phagocytosed spheres) and light scatter (cell size).

[2] = target: T1, PKCα (Homo sapiens, UniProt P17252); type: cell-based; conditions: HeLa, one hour; for PKCα translocation from the cytoplasm to the plasma membrane: TPA 100 ng/mL, bryostatin-1 5 pg/mL, PEP003 2.25 μg/mL (5 μM), PEP005 (1.5 μM)
T1 construct: host or cells: HeLa cells
Method: (§1) Five EGFP-PKC isoforms (Clontech) were available for this experiment, enabling the screening of the three predominant PKC families (i.e. classical, novel and a typical PKCs). The members of the various PKC families are α, β, and γ (classical), θ (novel) and ζ (atypical).
(§2) HeLa cells were plated out in a 24-well plate containing coverslips and transfected with PKC isoforms fused to EGFP, using a commercially available effectine-transfection kit (QIAGEN, Pty. Ltd.). Cells were exposed to the transfection reagents for 16-24 hr. Subsequently, transfected cells were treated for one hour with TPA (100 ng/mL), bryostatin-1 (5 pg/mL), PEP003 (2.25 μg/mL; 5 μM) or PEP005 ([…]) 1.5 μM). Following treatment, cells were fixed on coverslips and mounted on glass slides. The slides were subsequently examined visually by fluorescence microscopy, photographed, and over 150 cells were counted/treatment/PKC isoform. Counted cells were classified according to the localisation of the PKC-EGFP fluorescence as either cytoplasmic or plasma membrane using ImagePro™ 4.1 (FIG. 5). […] The number of these cells was also counted.

[3] = target: T2, PKCβ (Homo sapiens, UniProt P05771); experiment: EGFP-PKC isoform translocation in HeLa cells; type: cell-based; conditions: one hour; for PKCβ translocation from the cytoplasm to the plasma membrane: TPA 100 ng/mL, bryostatin-1 5 pg/mL, PEP003 2.25 μg/mL (5 μM), PEP005 670 μg/mL (1.5 μM)
T2 construct: host or cells: HeLa cells
Method: as §1
as §2, with “counted. Results are presented as an average and standard deviation of percentages of cells (Table 1).” for “counted.”

[4] = target: T3, PKCζ (Homo sapiens, UniProt Q05513); experiment: EGFP-PKC isoform translocation in HeLa cells; type: cell-based; conditions: one hour, TPA 100 ng/mL, bryostatin-1 5 pg/mL, PEP003 2.25 μg/mL (5 μM), PEP005 670 μg/mL (1.5 μM)
T3 construct: host or cells: HeLa cells
T3 sequence (Q05513 1-592): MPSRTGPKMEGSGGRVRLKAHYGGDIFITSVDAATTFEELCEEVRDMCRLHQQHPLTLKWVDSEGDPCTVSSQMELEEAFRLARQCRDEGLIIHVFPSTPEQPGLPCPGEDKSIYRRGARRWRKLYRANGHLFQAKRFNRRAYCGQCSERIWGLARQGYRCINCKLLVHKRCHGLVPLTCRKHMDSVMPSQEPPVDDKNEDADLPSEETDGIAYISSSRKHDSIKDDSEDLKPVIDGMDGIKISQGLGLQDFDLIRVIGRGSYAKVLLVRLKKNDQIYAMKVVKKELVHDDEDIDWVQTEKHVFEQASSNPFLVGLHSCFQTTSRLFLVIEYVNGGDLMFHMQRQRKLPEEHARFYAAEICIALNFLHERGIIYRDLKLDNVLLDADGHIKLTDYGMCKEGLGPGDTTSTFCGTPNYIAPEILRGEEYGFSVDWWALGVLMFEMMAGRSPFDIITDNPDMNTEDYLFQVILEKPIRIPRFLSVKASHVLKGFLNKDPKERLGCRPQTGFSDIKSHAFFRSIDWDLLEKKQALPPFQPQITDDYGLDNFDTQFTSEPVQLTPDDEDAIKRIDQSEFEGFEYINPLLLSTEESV
Method: as §1
as §2, with “counted. Results are presented as an average and standard deviation of percentages of cells (Table 1).” for “counted.”

[5] = target: T4, PKCγ (Homo sapiens, UniProt P05129); experiment: EGFP-PKC isoform translocation in HeLa cells; type: cell-based; conditions: one hour; for PKCγ translocation from the cytoplasm to the plasma membrane: TPA 100 ng/mL, bryostatin-1 5 pg/mL, PEP003 2.25 μg/mL (5 μM), PEP005 670 μg/mL (1.5 μM)
T4 construct: host or cells: HeLa cells
Method: as §1
as §2, with “counted. Results are presented as an average and standard deviation of percentages of cells (Table 1).” for “counted.”

[6] = target: T5, PKCθ (Homo sapiens, UniProt Q04759); experiment: EGFP-PKC isoform translocation in HeLa cells; type: cell-based; conditions: one hour, TPA 100 ng/mL, bryostatin-1 5 pg/mL, PEP003 2.25 μg/mL (5 μM)
T5 construct: host or cells: HeLa cells
Method: as §1
as §2, with “counted. Results are presented as an average and standard deviation of percentages of cells (Table 1).” for “counted.”

[7] = system: adenovirus 5; experiment: Adenovirus replication in human melanoma cells (immunohistochemical detection); type: cell-based; conditions: 295 ng/mL; 2 days
Excerpt: Human melanoma cells were infected with ten-fold dilutions of adenovirus 5 in culture, treated with dilutions of PEP005, PEP006, PEP008 and PEP010 and adenovirus replication determined 2 days later by immunhistochemical detection of virus-replicating cells.

[8] = system: rat brain PKC; experiment: PKC kinase activity, PepTag Non-Radioactive Protein Kinase Kit; type: biochemical; conditions: FIG. 1; TPA various dilutions (lanes 3, 4 and 5); ether extract at final dilution of 1 in 5 relative to the sap; crude sap and aqueous layer diluted 1/25
Method: The kinase activity of rat brain PKC (Promega) was determined using the Peptag™ Non-Radioactive Protein Kinase Kit (Promega). Using agarose gel electrophoresis the technique visualises the opposing electrostatic charge of a fluorescently labeled peptide ([sequence]) compared to the phosphorylated version of the same peptide.
The reaction mixture was separated by gel electrophoresis, showing migration of the unreacted substrate (a) to the anode (top), and the product (b), which is more negatively charged because of phosphorylation by PKC, moving towards the cathode (bottom).

[9] = system: CMV promoter; conditions: Christenson et al., 1999; cited from earlier work
[10] = system: Burkitt's lymphoma cell lines (MutuI and BL74); experiment: EBV activation, VCA on western blots, Burkitt's lymphoma cell lines; type: cell-based
Method: Initially the effect of PEP003 and PEP004 was tested on the B95-8 cell line (an EBV positive marmoset cell line that is used worldwide as one of the best EBV producers). This cell line was treated with each of these compounds (at different concentrations) for 3 days and 7 days, respectively, and activation of EBV virus production was measured by the appearance of a viral capsid antigen (VCA) on western blots. Also, as a comparison, EBV was activated in this cell line with TPA.
To ensure that equal amounts of each sample were analyzed, the gels were stained with Coomassie blue and the loadings were adjusted to make them equal. […] Next the PEP003 and PEP004 were assayed on two Burkitt's lymphoma cell lines and an LCL. This time only concentrations of 10^−5 and 10^−7 were used.

[11] = system: latent HIV in monocytes; conditions: Tobiume et al., 1998; cited from earlier work
[12] = system: latently HIV-1 infected cell line (U1); experiment: Activation of latent HIV from U1 cells (p24 ELISA); type: cell-based, HIV-1 LAI strain; conditions: 20 hr culture
Excerpt: A latently HIV-1 infected cell line (U1), derived from the promonocytic cell line U937 after infection with HIV-1 LAI strain, was used in these experiments. In the absence of activation, no or little virus (measured as p24 production) is produced by the U1 cell line. Phorbol esters are known to activate virus production from these cells (Tobiume et al., 1998) and so TPA/PMA was used as a positive control in these experiments.
Supernatants were collected and viral replication monitored by determination of the amounts of HIV p24 gag protein in the culture supernatants by ELISA, using a NEN Life Science HIV-1 p24 ELISA kit. p24 values were calculated from OD values using a standard curve.

[13] = system: phorbol ester binding site of PKC; experiment: [3H]-phorbol dibutyrate competition assay on rat brain homogenate; conditions: co-incubation
Method: A competition assay was performed to determine whether the diterpene esters of the instant invention bind to the phorbol ester binding site of PKC. […] This binding was not blocked by co-incubation with bisindolylmaleimide.

[14] = system: Peripheral blood mononuclear cells (PBMC); experiment: Respiratory burst, H2O2 production by DCFH-DA flow cytometry; type: cell-based; conditions: 10 μg/mL or 1 μg/mL, added at the same time as the test compounds
Method: Experiments were also carried out using 2′,7′-dichlorofluorescein diacetate (DCFH-DA) to measure the production of H2O2.(J P Robinson, Oxidative burst methods, in Handbook of Flow Cytometry Methods, Wiley-Liss Inc, pp 147-149, 1993). H2O2 oxidizes the non-fluorescent probe (DCFH-DA) to a fluorescent probe that can then be detected by a flow cytometer. Peripheral blood mononuclear cells (PBMC) were extracted from a donor blood sample by lysis of heparinized blood and used in a suspension of 1×10^6/mL of phosphate buffer, pH 7.3. The cells were then incubated, with DCFH-DA (1 μL/mL of 20 mM stock) for 15 minutes to allow it to be taken up and trapped by hydrolysis with cellular esterases. The cells were then stimulated by test compounds for 15 min at 37° C. Controls included in the experiment were unloaded control (cells with no DCFH-DA) and loaded control (cells with DCFH-DA, but no stimulation). These were used to monitor the non-specific oxidation of unstimulated cells. The cells were then analyzed on the flow cytometer (excitation at 488 nm, emission at 525±20 nm), gating each sample for individual cell populations—granulocytes, monocytes and lymphocytes (Table 3).

T2 sequence (P05771 whole entry, species assumed, canonical isoform): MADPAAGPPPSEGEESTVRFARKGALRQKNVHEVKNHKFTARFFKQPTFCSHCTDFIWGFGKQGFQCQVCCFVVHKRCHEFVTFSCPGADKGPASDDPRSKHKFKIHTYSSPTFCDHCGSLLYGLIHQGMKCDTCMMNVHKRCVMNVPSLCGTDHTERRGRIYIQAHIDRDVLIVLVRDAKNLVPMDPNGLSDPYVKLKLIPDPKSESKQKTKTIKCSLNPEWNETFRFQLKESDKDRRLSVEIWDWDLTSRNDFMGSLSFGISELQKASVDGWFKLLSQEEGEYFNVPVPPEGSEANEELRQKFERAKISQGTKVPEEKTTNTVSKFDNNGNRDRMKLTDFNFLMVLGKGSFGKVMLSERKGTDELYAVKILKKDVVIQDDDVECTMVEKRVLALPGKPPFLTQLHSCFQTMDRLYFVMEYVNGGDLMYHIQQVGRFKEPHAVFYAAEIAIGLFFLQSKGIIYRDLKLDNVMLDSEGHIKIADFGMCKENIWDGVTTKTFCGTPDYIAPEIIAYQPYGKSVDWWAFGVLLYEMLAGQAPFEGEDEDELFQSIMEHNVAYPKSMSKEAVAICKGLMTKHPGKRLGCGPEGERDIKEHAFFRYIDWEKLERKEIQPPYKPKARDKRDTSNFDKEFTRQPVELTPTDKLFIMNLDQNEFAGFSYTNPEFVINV
T5 sequence (Q04759 whole entry, canonical isoform): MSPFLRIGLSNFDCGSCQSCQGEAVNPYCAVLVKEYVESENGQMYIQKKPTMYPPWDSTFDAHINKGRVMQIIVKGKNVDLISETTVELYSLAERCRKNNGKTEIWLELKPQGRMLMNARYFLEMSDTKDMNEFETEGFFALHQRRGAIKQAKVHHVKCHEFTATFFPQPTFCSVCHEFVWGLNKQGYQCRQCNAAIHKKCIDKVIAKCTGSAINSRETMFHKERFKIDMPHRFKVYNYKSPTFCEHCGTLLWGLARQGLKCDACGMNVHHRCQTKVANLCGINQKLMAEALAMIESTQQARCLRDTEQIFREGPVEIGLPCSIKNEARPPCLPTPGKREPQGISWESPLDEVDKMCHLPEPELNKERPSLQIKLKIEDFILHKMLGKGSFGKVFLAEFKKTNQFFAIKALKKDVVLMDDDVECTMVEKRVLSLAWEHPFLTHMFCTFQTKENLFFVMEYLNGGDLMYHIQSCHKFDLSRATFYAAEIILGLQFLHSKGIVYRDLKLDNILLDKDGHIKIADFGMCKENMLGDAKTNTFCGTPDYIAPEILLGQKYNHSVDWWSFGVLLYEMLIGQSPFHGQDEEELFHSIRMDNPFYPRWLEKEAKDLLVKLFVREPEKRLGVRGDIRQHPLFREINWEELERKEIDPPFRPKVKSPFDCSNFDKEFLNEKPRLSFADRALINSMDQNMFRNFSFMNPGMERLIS

Compound	phagocytosis of fluorescent latex spheres in PBMCs [1]	number of PKCα transfected cells displaying Golgi-like fluorescence [2]	PKCα translocation from the cytoplasm to the plasma membrane [2]	number of PKCβ transfected cells with Golgi-like fluorescence [3]	PKCβ translocation from the cytoplasm to the plasma membrane [3]	PKCζ translocation [4]	number of PKCγ transfected cells displaying Golgi-like fluorescence [5]	PKCγ translocation from the cytoplasm to the plasma membrane [5]	PKCθ translocation [6]	activation of PKC [8]	also measured
C/C=C(/C)C(=O)O[C@H]1C(C)=C[C@]23C(=O)[C@@H](C=C(CO)[C@@H](O)[C@]12O)[C@H]1[C@@H](C[C@H]3C)C1(C)C [PEP005, Ingenol-3-angelate]	stimulate phagocytosis	increase in the number of cells displaying Golgi-like fluorescence	translocated from the cytoplasm to the plasma membrane	decreases the number of cells with PKCβ concentrated in the Golgi	translocated from the cytoplasm to the plasma membrane	fail to induce translocation of PKCζ	increase in the number of cells displaying Golgi-like fluorescence	translocated from the cytoplasm to the plasma membrane	does not induce any change in the isoenzymes localization	–	–
C/C=C(/C)C(=O)O[C@H]1C(C)=C[C@]23C(=O)[C@H](C=C(C)[C@@H](O)[C@]12O)[C@H]1[C@@H](C[C@H]3C)C1(C)C [PEP006, 20-deoxy-ingenol-3-angelate]	stimulate phagocytosis	–	–	–	–	–	–	–	–	–	increase of adenovirus replication (number of stained cells) [7]: 256%
CCCCCCCCCCCCCC(=O)O[C@@H]1[C@@H](C)[C@@]2(O)[C@@H](C=C(CO)C[C@]3(O)C(=O)C(C)=C[C@@H]23)[C@@H]2C(C)(C)[C@]12OC(C)=O [TPA]	stimulate phagocytosis	increase in the number of cells displaying Golgi-like fluorescence	translocated from the cytoplasm to the plasma membrane	increase in Golgi-like fluorescence	translocated from the cytoplasm to the plasma membrane	fail to induce translocation of PKCζ	increase in the number of cells displaying Golgi-like fluorescence	translocated from the cytoplasm to the plasma membrane	translocated	showed activation of PKC	increase of CMV promoter transcriptional activity [9]: increase this activity; induction of VCA in MutuI cells [10]: did not; activation of latent HIV in monocytes [11]: activate latent HIV in monocytes; activation of HIV from U1 cells (p24 production) [12]: activated HIV from U1 cells
CCC/C=C/C=C/C(=O)O[C@H]1/C(=C/C(=O)OC)C[C@H]2C[C@H]([C@@H](C)O)OC(=O)C[C@H](O)C[C@@H]3C[C@H](OC(C)=O)C(C)(C)[C@](O)(C[C@@H]4C/C(=C/C(=O)OC)C[C@H](/C=C/C(C)(C)[C@]1(O)O2)O4)O3 [bryostatin-1]	–	–	not with bryostatin-1	decreases the number of cells with PKCβ concentrated in the Golgi	not with bryostatin-1	fail to induce translocation of PKCζ	–	–	translocated	–	–
bisindolylmaleimide	–	–	–	–	–	–	–	–	–	–	binds to the phorbol ester binding site of PKC [13]: does not; effect of PKC inhibitor on the respiratory burst seen with TPA and PEP003 [14]: blocked the respiratory burst
phosphatidyl serine	–	–	–	–	–	–	–	–	–	strong activation	–
